Measurements taken from US5017619A, “Phenethanolamine derivatives” (Hoffmann-La Roche Inc., priority 1985, dated 1991).
Like-named read-outs stand apart in the source and are kept apart here.

Legend:
male albino rats = assay: Activity on oxygen consumption; type: in vivo; settings: rat, per os, corrected for placebo group; for response vs control in vivo at 1 µM, 1 µmol/kg / response vs control in vivo at 3 µM, 3 µmol/kg / response vs control in vivo at 0.3 µM, 0.3 µmol/kg: po; for response vs control in vivo at 1 µM, 1 µmol/kg: 1 μM/kg; for response vs control in vivo at 3 µM, 3 µmol/kg: 3 μM/kg
Experimental: (1) Activity on oxygen consumption
Male albino rats weighing 160-180 g were placed in metabolic cages after fasting for 24 hours. The cages were ventilated with a constant 6 liter room air/minute which was equilibrated at a dew point of 11° C. Samples of the spent air were collected during periods of in each case 14 minutes after again equilbrating and the oxygen content and CO2 content were analyzed. After an adaptation time of 4 hours the animals, divided into groups of 6, received either placebo (5% gum arabic) or the test substance (suspended in 5% gum arabic) per os. Thereafter, the determinations were carried out for a period of 12 hours. In Table I there is given the percentage of the average oxygen consumption after medication during the first 3 hours and the entire test duration (12 hours) of the oxygen consumption of the adaptation period, corresponding corrections for variations in the placebo group having been taken into consideration.

[1] = test system: female hyperglycaemic fat mice; assay: Activity on urine glucose and blood glucose and the formation of brown adipose tissue (obese-hyperglycaemic mice); type: in vivo; settings: oral, percentage of control value; for Blood glucose / Brown adipose tissue (weight of interscapular brown adipose tissue): end of 15-day test
Experimental: (2) Activity on urine glucose and blood glucose and the formation of brown adipose tissue
Female hyperglycaemic fat mice were adapted to an amount of feed limited to 3 g/day/animal. The test compounds (suspended in 5% gum arabic) or placebo (5% gum arabic) were administered orally twice daily during 15 days. Urine was collected for 6 days a week and urine glucose was determined. Blood glucose and the weight of the interscapular brown adipose tissue were determined at the end of the test.
The test results are given in Table II as a percentage of the control value.

[2] = test system: streptozotocin-diabetic rats; assay: Activity on the urine glucose of streptozotocin-diabetic rats; type: in vivo, albino rats; settings: oral, 90 μM/kg per day, 2nd week of treatment
Experimental: (3) Activity on the urine glucose of streptozotocin-diabetic rats
A diabetes was produced in female albino rats (weight 130-140 g) by the subcutaneous injection of streptozotocin (70 mg/kg). The diabetic animals were adapted to an amount of feed limited to 15 g/day/animal. The test compound (suspended in 5% gum arabic) or placebo (5% gum arabic) was administered orally twice daily. The urine was collected for 6 days a week and urine glucose was determined. The urine glucose excretion of the treated animals during the 2nd week of treatment is given in Table III as a percentage of the control value.

[3] = 3 h, 1st-3rd hour, read-out: O2 consumption, % of value of the pre-period, 1st-3rd hour
[4] = 12 h, 1st-12th hour, read-out: O2 consumption, % of value of the pre-period, 1st-12th hour
[5] = 3 h, 0.3 μM/kg, 1st-3rd hour, read-out: O2 consumption, % of value of the pre-period, 1st-3rd hour
[6] = 12 h, 0.3 μM/kg, 1st-12th hour, read-out: O2 consumption, % of value of the pre-period, 1st-12th hour

CC(Cc1ccc(OCCOCCc2ccccc2)cc1)N(CC(O)c1cccc(Cl)c1)CC(O)c1cccc(Cl)c1 [Example 2g2, (R)-m-chloro-α-[[[(S)-m-chloro-β-hydroxyphenethyl][(R)-α-methyl-p-[2-phenethoxy)ethoxy]phenethyl]amino]-methyl]benzyl alcohol]]
response vs control in vivo at 1 µM, 1 µmol/kg (male albino rats; [3]): 163%
response vs control in vivo at 1 µM, 1 µmol/kg (male albino rats; [4]): 131%
Urine glucose 1st week ([1]; 3 μM/Kg per day): 17.7%
Urine glucose 2nd week ([1]; 3 μM/Kg per day): 2.4%
Blood glucose ([1]; 3 μM/Kg per day): 38%
Brown adipose tissue (weight of interscapular brown adipose tissue) ([1]; 3 μM/Kg per day): 157%
Urine glucose 1st week ([1]; 30 μM/Kg per day): 1.6%
Urine glucose 2nd week ([1]; 30 μM/Kg per day): 0.6%
Blood glucose ([1]; 30 μM/Kg per day): 33%
Brown adipose tissue (weight of interscapular brown adipose tissue) ([1]; 30 μM/Kg per day): 144%
Urine glucose 2nd week, % of controls [2]: 68%

CCOCCOc1ccc(CCN(C[C@@H](O)c2cccc(Cl)c2)C[C@H](O)c2cccc(Cl)c2)cc1 [Example 11, (R)-m-chloro-α-[[[(S)-m-chloro-β-hydroxyphenethyl][p-(2-ethoxyethoxy)phenethyl]amino]methyl]benzyl alcohol]
response vs control in vivo at 3 µM, 3 µmol/kg (male albino rats; [3]): 181%
response vs control in vivo at 3 µM, 3 µmol/kg (male albino rats; [4]): 140%

C[C@H](Cc1ccc(OCCOCc2ccc(Oc3ccccc3)cc2)cc1)N(C[C@H](O)c1ccccc1)C[C@H](O)c1ccccc1 [Example 2e, α,α'-[[[(R)-α-methyl-p-[2-[(p-phenoxybenzyl)oxy]ethoxy]phenethyl]imino]dimethylene]di-(R)-benzyl alcohol]
response vs control in vivo at 1 µM, 1 µmol/kg (male albino rats; [3]): 145%
response vs control in vivo at 1 µM, 1 µmol/kg (male albino rats; [4]): 116%

C[C@H](Cc1ccc(OCCOCCc2ccccc2)cc1)N(C[C@@H](O)c1cccc(Cl)c1)C[C@@H](O)c1cccc(Cl)c1 [Example 2g3]
response vs control in vivo at 3 µM, 3 µmol/kg (male albino rats; [3]): 138%
response vs control in vivo at 3 µM, 3 µmol/kg (male albino rats; [4]): 119%

C[C@H](Cc1ccc(OCCOCCc2ccccc2)cc1)N(C[C@H](O)c1cccc(Cl)c1)C[C@H](O)c1cccc(Cl)c1 [Example 2g1, α,α'-[[[(R)-α-methyl-p-[2-(phenethoxy)ethoxy]phenethyl]imino]dimethylene]bis[(R)-m-chlorobenzyl alcohol]]
response vs control in vivo at 0.3 µM, 0.3 µmol/kg (male albino rats; [5]): 137%
response vs control in vivo at 0.3 µM, 0.3 µmol/kg (male albino rats; [6]): 117%

CCOCCOc1ccc(C[C@@H](C)N(C[C@@H](O)c2cccc(Cl)c2)C[C@H](O)c2ccccc2)cc1 [Example 10a2, (S)-m-chloro-α-[[[(R)-p-(2-ethoxyethoxy)-α-methylphenethyl][(R)-β-hydroxyphenethyl]amino]methyl]benzyl alcohol]
response vs control in vivo at 3 µM, 3 µmol/kg (male albino rats; [3]): 183%
response vs control in vivo at 3 µM, 3 µmol/kg (male albino rats; [4]): 141%

CCOCCOc1ccc(CCN(C[C@H](O)c2ccccc2)C[C@H](O)c2ccccc2)cc1 [Example 2f, α,α'-[[[p-(2-ethoxyethoxy)phenethyl]imino]dimethylene]di-(R)-benzyl alcohol]
response vs control in vivo at 1 µM, 1 µmol/kg (male albino rats; [3]): 142%
response vs control in vivo at 1 µM, 1 µmol/kg (male albino rats; [4]): 112%
Urine glucose 1st week ([1]; 9 μM/Kg per day): 43%
Urine glucose 2nd week ([1]; 9 μM/Kg per day): 33%
Blood glucose ([1]; 9 μM/Kg per day): 51%
Brown adipose tissue (weight of interscapular brown adipose tissue) ([1]; 9 μM/Kg per day): 158%
Urine glucose 1st week ([1]; 90 μM/Kg per day): 4.8%
Urine glucose 2nd week ([1]; 90 μM/Kg per day): 0.3%
Blood glucose ([1]; 90 μM/Kg per day): 34%
Brown adipose tissue (weight of interscapular brown adipose tissue) ([1]; 90 μM/Kg per day): 163%

C[C@H](Cc1ccc(OCCOCCc2ccc(F)cc2)cc1)N(C[C@H](O)c1ccccc1)C[C@H](O)c1ccccc1 [Example 2c]
response vs control in vivo at 1 µM, 1 µmol/kg (male albino rats; [3]): 167%
response vs control in vivo at 1 µM, 1 µmol/kg (male albino rats; [4]): 122%

COCCOCCOc1ccc(C[C@@H](C)N(C[C@H](O)c2ccccc2)C[C@H](O)c2ccccc2)cc1 [Example 2b]
response vs control in vivo at 1 µM, 1 µmol/kg (male albino rats; [3]): 166%
response vs control in vivo at 1 µM, 1 µmol/kg (male albino rats; [4]): 119%

CCOCCOc1ccc(C[C@@H](C)N(C[C@H](O)c2ccccc2)C[C@H](O)c2cccc(Cl)c2)cc1 [Example 10a1, 3-chloro-α,α'-[[[(R)-p-(2-ethoxyethoxy)-α-methylphenethyl]imino]dimethylene]di-(R)-benzyl alcohol]
response vs control in vivo at 0.3 µM, 0.3 µmol/kg (male albino rats; [5]): 154%
response vs control in vivo at 0.3 µM, 0.3 µmol/kg (male albino rats; [6]): 117%

C[C@H](Cc1ccc(OCCOCCc2ccccc2)cc1)N(C[C@H](O)c1ccccc1)C[C@H](O)c1ccccc1 [Example 1, α,α'-[[[(R)-α-methyl-p-[2-(phenethoxy)ethoxy]phenethyl]imino]dimethylene]di-(R)-benzyl alcohol]
response vs control in vivo at 1 µM, 1 µmol/kg (male albino rats; [3]): 147%
response vs control in vivo at 1 µM, 1 µmol/kg (male albino rats; [4]): 117%

COC(=O)C=CCOc1ccc(C[C@@H](C)N(C[C@H](O)c2ccccc2)C[C@H](O)c2ccccc2)cc1 [Example 4]
O2 consumption, % of value of the pre-period, 1st-3rd hour (male albino rats; 0.3 μM/kg, 1st-3rd hour): 123%
O2 consumption, % of value of the pre-period, 1st-12th hour (male albino rats; 0.3 μM/kg, 1st-12th hour): 110%

O[C@H](CN(CCc1ccc(OCCOCCc2ccccc2)cc1)C[C@H](O)c1cccc(Cl)c1)c1cccc(Cl)c1 [Example 12a, (R)-m-chloro-α-[[[(S)-m-chloro-β-hydroxyphenethyl]-[p-[2-(phenethoxy)ethoxy]phenethyl]amino]methyl]benzyl alcohol]
response vs control in vivo at 1 µM, 1 µmol/kg (male albino rats; [3]): 143%
response vs control in vivo at 1 µM, 1 µmol/kg (male albino rats; [4]): 116%

CCOCCOc1ccc(C[C@@H](C)N(C[C@H](O)c2ccccc2)C[C@H](O)c2ccccc2)cc1 [Example 2a, α,α'-[[[(R)-p-(2-ethoxyethoxy)-α-methylphenethyl]imino]dimethylene]di-(R)-benzyl alcohol]
response vs control in vivo at 0.3 µM, 0.3 µmol/kg (male albino rats; [5]): 152%
response vs control in vivo at 0.3 µM, 0.3 µmol/kg (male albino rats; [6]): 114%

CCOCCOc1ccc(CCN(C[C@H](O)c2cccc(Cl)c2)C[C@H](O)c2cccc(Cl)c2)cc1 [Example 8d, α,α'-[[[p-(2-ethoxyethoxy)phenethyl]imino]dimethylene]bis[(R)-m-chlorobenzyl alcohol]]
response vs control in vivo at 3 µM, 3 µmol/kg (male albino rats; [3]): 172%
response vs control in vivo at 3 µM, 3 µmol/kg (male albino rats; [4]): 147%
